From PubChem BioAssay AID182 (DTP/NCI, 2004)
Inconclusive results and toxic doses are left out. How the source made its calls: active means survival T/C of 150% or more; inactive means T/C below 125% in these data.

Tested on: BDF1 mice, P388/ADR leukemia ip, median survival T/C
Assay: NCI In Vivo Anticancer Drug Screen. Data for tumor model P388 Leukemia resistant to Adriamycin; NSC 123127, Developed at Scr 06 and 41 (intraperitoneal) in B6D2F1 (BDF1) mice
Details: endpoint: median survival time, higher = longer survival
Experimental: The antitumor activity of compounds was measured in mice bearing transplantable tumors. Survival or tumor size were measured and the results are expressed as the measurement made in the treated group (T) divided by the measurement made in the vehicle treated control group (C). The tumor model used in this assay is P388 Leukemia resistant to Adriamycin; NSC 123127, Developed at Scr 06 and 41 (intraperitoneal) in B6D2F1 (BDF1) mice

[1] = dose: 0.72 mg/kg/injection, schedule: Q04DX003 (ip), vehicle: saline
[2] = dose: 173.0 micrograms/kg/injection, schedule: Q01DX009 (ip), vehicle: saline
[3] = dose: 288.0 micrograms/kg/injection, schedule: Q01DX009 (ip), vehicle: saline
[4] = dose: 480.0 micrograms/kg/injection, schedule: Q01DX009 (ip), vehicle: saline
[5] = dose: 18.0 mg/kg/injection, schedule: Q04DX003 (ip), vehicle: saline

Measured: T/C

CC[C@@]1(O)C[C@H](OC2CC(N(C)C)C(O)C(C)O2)c2c(cc3c(c2O)C(=O)c2c(O)ccc(O)c2C3=O)[C@H]1C(=O)OC (stereo partly drawn)
inactive: dose: 4.32 mg/kg/injection, schedule: Q04DX003 (ip), vehicle: other 110 % of control | dose: 7.2 mg/kg/injection, schedule: Q04DX003 (ip), vehicle: other 109 % of control | dose: 12.0 mg/kg/injection, schedule: Q04DX003 (ip), vehicle: other 104 % of control | dose: 20.0 mg/kg/injection, schedule: Q04DX003 (ip), vehicle: other 110 % of control

CSCS(=O)C[C@H](CO)NC(=O)/C=C/c1c(C)[nH]c(=O)[nH]c1=O (stereo partly drawn)
inactive: [1] 88 % of control | dose: 0.86 mg/kg/injection, schedule: Q04DX003 (ip), vehicle: saline 100 % of control | dose: 1.2 mg/kg/injection, schedule: Q04DX003 (ip), vehicle: saline 86 % of control | dose: 1.44 mg/kg/injection, schedule: Q04DX003 (ip), vehicle: saline 114 % of control | dose: 2.0 mg/kg/injection, schedule: Q04DX003 (ip), vehicle: saline 86 % of control | dose: 2.4 mg/kg/injection, schedule: Q04DX003 (ip), vehicle: saline 119 % of control | [2] 99 % of control | [3] 99 % of control | [4] 95 % of control

CO[C@H]1C[C@](C)(O)Cc2cc3c(c(O)c21)C(=O)c1c(O)cc2c(c1C3=O)O[C@@H]1O[C@@]2(C)[C@H](O)[C@@H](N(C)C)[C@@H]1O
inactive: dose: 18.0 mg/kg/injection, schedule: Q04DX003 (ip), vehicle: lactate 112 % of control | dose: 30.0 mg/kg/injection, schedule: Q04DX003 (ip), vehicle: lactate 116 % of control | dose: 50.0 mg/kg/injection, schedule: Q04DX003 (ip), vehicle: lactate 94 % of control

CCC1=C(C[C@H]2NCCc3cc(OC)c(OC)cc32)C[C@H]2c3cc(OC)c(OC)cc3CCN2C1
inactive: dose: 10.8 mg/kg/injection, schedule: Q04DX003 (ip), vehicle: saline 108 % of control | [5] 96 % of control | dose: 30.0 mg/kg/injection, schedule: Q04DX003 (ip), vehicle: saline 107 % of control

CC(=O)C1(O)Cc2c(O)c3c(c(O)c2C(OC2CC(N)C(O)C(C)O2)C1)C(=O)c1ccccc1C3=O (stereo not drawn)
inactive: dose: 324.0 micrograms/kg/injection, schedule: Q04DX003 (ip), vehicle: water 119 % of control | dose: 540.0 micrograms/kg/injection, schedule: Q04DX003 (ip), vehicle: water 122 % of control | dose: 900.0 micrograms/kg/injection, schedule: Q04DX003 (ip), vehicle: water 122 % of control | dose: 1500.0 micrograms/kg/injection, schedule: Q04DX003 (ip), vehicle: water 98 % of control

CO[C@H]1Nc2c(ccc(C)c2O)C(=O)N2C=C(/C=C/C(N)=O)C[C@@H]12
active: dose: 216.0 micrograms/kg/injection, schedule: Q04DX003 (ip), vehicle: saline + alcohol 154 % of control | dose: 252.0 micrograms/kg/injection, schedule: Q04DX003 (ip), vehicle: saline + alcohol 194 % of control | dose: 360.0 micrograms/kg/injection, schedule: Q04DX003 (ip), vehicle: saline + alcohol 176 % of control | dose: 420.0 micrograms/kg/injection, schedule: Q04DX003 (ip), vehicle: saline + alcohol 176 % of control
inactive: dose: 600.0 micrograms/kg/injection, schedule: Q04DX003 (ip), vehicle: saline + alcohol 90 % of control

CC1OC(O[C@H]2/C=C/C=C/C=C/C=C/C=C/C=C/C=C/[C@H](C)[C@@H](O)[C@@H](C)[C@H](C)OC(=O)C[C@H](O)C[C@H](O)CC[C@@H](O)[C@H](O)C[C@H](O)C[C@]3(O)C[C@H](O)[C@@H](C(=O)O)[C@H](C2)O3)C(O)C(N)C1O (stereo partly drawn)
inactive: dose: 20.0 mg/kg/injection, schedule: Q04DX003 (ip), vehicle: clinical formulation 93 % of control

CC(=O)[C@]1(O)Cc2c(O)c3c(c(O)c2[C@@H](OC2CC(N)C(O)C(C)O2)C1)C(=O)c1c(O)cccc1C3=O (stereo partly drawn)
inactive: dose: 0.32 mg/kg/injection, schedule: Q04DX003 (ip), vehicle: water 108 % of control | dose: 0.39 mg/kg/injection, schedule: Q04DX003 (ip), vehicle: water 118 % of control | dose: 0.54 mg/kg/injection, schedule: Q04DX003 (ip), vehicle: water 88 % of control | dose: 0.65 mg/kg/injection, schedule: Q04DX003 (ip), vehicle: water 123 % of control

CC1CC(C)(O)CC(C(O)CC2CC(=O)NC(=O)C2)C1=O (stereo not drawn)
inactive: [1] 120 % of control | dose: 0.78 mg/kg/injection, schedule: Q04DX003 (ip), vehicle: saline 124 % of control | dose: 2.16 mg/kg/injection, schedule: Q04DX003 (ip), vehicle: saline 91 % of control | [2] 103 % of control | [3] 112 % of control | [4] 92 % of control

NC(C/[N+]([O-])=N/O)C(=O)O (stereo not drawn)
active: dose: 288.0 mg/kg/injection, schedule: Q04DX003 (ip), vehicle: sodium bicarbonate 159 % of control | dose: 480.0 mg/kg/injection, schedule: Q04DX003 (ip), vehicle: sodium bicarbonate 154 % of control

COC(=O)C[C@](O)(CCCC(C)(C)O)C(=O)O[C@@H]1C(OC)=C[C@]23CCCN2CCc2cc4c(cc2[C@H]13)OCO4
inactive: dose: 0.72 mg/kg/injection, schedule: Q04DX003 (ip), vehicle: acid diluted with saline 100 % of control | dose: 1.2 mg/kg/injection, schedule: Q04DX003 (ip), vehicle: acid diluted with saline 103 % of control | dose: 2.0 mg/kg/injection, schedule: Q04DX003 (ip), vehicle: acid diluted with saline 110 % of control

O=C[C@@H](CO)O[C@H](C=O)n1cnc2c(=O)[nH]cnc21
active: dose: 180.0 mg/kg/injection, schedule: Q04DX003 (ip), vehicle: water 162 % of control | dose: 300.0 mg/kg/injection, schedule: Q04DX003 (ip), vehicle: water 203 % of control

COc1cc(O)c2c(c1)C(=O)c1cc3c(c(O)c1C2=O)C(OC1OC(C)C(O)C(O)C1OC)C(OC)C(C)(O)C3=O (stereo not drawn)
inactive: dose: 25.9 mg/kg/injection, schedule: Q01DX009 (ip), vehicle: Klucel (hydroxypropylcellulose) (HPC) 96 % of control | dose: 43.2 mg/kg/injection, schedule: Q01DX009 (ip), vehicle: Klucel (hydroxypropylcellulose) (HPC) 96 % of control | dose: 72.0 mg/kg/injection, schedule: Q01DX009 (ip), vehicle: Klucel (hydroxypropylcellulose) (HPC) 99 % of control | dose: 108.0 mg/kg/injection, schedule: Q04DX003 (ip), vehicle: Klucel (hydroxypropylcellulose) (HPC) 100 % of control | dose: 120.0 mg/kg/injection, schedule: Q01DX009 (ip), vehicle: Klucel (hydroxypropylcellulose) (HPC) 103 % of control | dose: 180.0 mg/kg/injection, schedule: Q04DX003 (ip), vehicle: Klucel (hydroxypropylcellulose) (HPC) 105 % of control

CC[C@H]1CN2CCc3cc(OC)c(OC)cc3[C@@H]2C[C@@H]1C[C@H]1NCCc2cc(OC)c(OC)cc21
inactive: dose: 7.78 mg/kg/injection, schedule: Q04DX003 (ip), vehicle: saline 106 % of control | dose: 9.0 mg/kg/injection, schedule: Q04DX003 (ip), vehicle: saline 94 % of control | dose: 13.0 mg/kg/injection, schedule: Q04DX003 (ip), vehicle: saline 114 % of control | [5] 100 % of control | dose: 21.6 mg/kg/injection, schedule: Q04DX003 (ip), vehicle: saline 106 % of control

COc1cccc2c1C(=O)c1c(O)c3c(c(O)c1C2=O)C[C@@](O)(C(=O)CO)C[C@@H]3OC1CC([N+](C)(C)C)C(O)C(C)O1 (stereo partly drawn)
inactive: dose: 8.64 mg/kg/injection, schedule: Q04DX003 (ip), vehicle: water 99 % of control | dose: 14.4 mg/kg/injection, schedule: Q04DX003 (ip), vehicle: water 99 % of control

COc1cc2c[n+](C)c3c4cc5c(cc4ccc3c2cc1OC)OCO5
inactive: dose: 28.8 mg/kg/injection, schedule: Q04DX003 (ip), vehicle: Klucel (hydroxypropylcellulose) (HPC) 123 % of control | dose: 48.0 mg/kg/injection, schedule: Q04DX003 (ip), vehicle: Klucel (hydroxypropylcellulose) (HPC) 105 % of control | dose: 55.0 mg/kg/injection, schedule: Q04DX003 (ip), vehicle: other 107 % of control | dose: 80.0 mg/kg/injection, schedule: Q04DX003 (ip), vehicle: Klucel (hydroxypropylcellulose) (HPC) 124 % of control | dose: 92.0 mg/kg/injection, schedule: Q04DX003 (ip), vehicle: other 106 % of control

CC(=O)c1cccc(NC2C(N)C(NC(=O)N(C)C)(C(C)O)C(C)(O)C2(O)COC(=O)c2c(C)cccc2O)c1 (stereo not drawn)
inactive: dose: 5.18 mg/kg/injection, schedule: Q04DX003 (ip), vehicle: alkali diluted with saline 90 % of control | dose: 6.5 mg/kg/injection, schedule: Q04DX003 (ip), vehicle: alkali diluted with saline 114 % of control | dose: 8.64 mg/kg/injection, schedule: Q04DX003 (ip), vehicle: alkali diluted with saline 89 % of control | dose: 14.4 mg/kg/injection, schedule: Q04DX003 (ip), vehicle: alkali diluted with saline 87 % of control
